# US11944607B2, “Treatment of progressive neurodegenerative disease with ibudilast” (MediciNova, Inc., priority 2007, dated 2024)
# “And” between values parts separate entries of the source, which are not always exact repeats. Equal entries are not always repeated.
# Experiments:
# [1] = test system: patients with multiple sclerosis; test: Phase II placebo-controlled, randomized, double-blind study: relapse and disability (EDSS) outcomes; assay type: in vivo, human
# Method: (§1) A Phase II placebo-controlled, randomized, double-blind study was conducted using ibudilast in patients with multiple sclerosis. During year 1, patients were treated with 0 mg tid (placebo), 10 mg tid or 20 mg tid of ibudilast; during year 2, patients on placebo were randomized to receive either 10 mg tid or 20 mg tid of ibudilast (patients on 10 mg tid or 20 mg tid during the first year of the study continued on that dose during the second year). A baseline MRI scan was taken two weeks prior to treatment. Brain volume changes were assessed on an annual basis with subsequent MRI scans. MRI scans were performed every two months of the 2-year period to assess changes in T1 and T2 lesions.
# [2] = test system: patients with multiple sclerosis; test: Phase II clinical trial: brain volume loss by cranial MRI; assay type: in vivo, human
# Method: as §1
# [3] = test system: patients with multiple sclerosis; test: Phase II clinical trial: double-blind MRI analysis of new lesion evolution to persistent black holes; assay type: in vivo, human; settings: for Mean Proportion of Lesions Evolving to PBH / Median Proportion of Lesions Evolving to PBH: new lesions at month 2, PBH at month 10
# Text: The study is the result of randomized, double-blind, placebo-controlled analysis of year 1 MRI data with MN-166 administration. MRIs were collected bimonthly during the one year treatment period and were re-evaluated in a double-blind manner for this new analysis. Predefined endpoints for this evaluation were the rate of evolution of new lesions to persistent black holes and remyelinated lesions. The predefined statistical endpoints were at the rate of evolution of new lesions (NL) to persistent black holes (PBH) and remyelinated lesions (RL). New T1 gadolinium-enhancing or new T2 lesions were defined as NL in the first on-study Mill at month 2. […] Hypointense lesions at month 2 or 4 that were isointense at month 10 were RL. Relative Risk (RR) of NL evolution to PBH and RL per patient was analyzed using a general linear model with the error term from the Poisson distribution.
# [4] = test system: rat animal model for Alzheimer's disease; test: Rat animal model for Alzheimer's disease; assay type: in vivo; settings: present-tense example without data
# [5] = test system: animal model for progressive multiple sclerosis; test: Animal model for progressive multiple sclerosis; assay type: in vivo; settings: progressive MS model; present-tense example without data
# [6] = test system: animal model for Parkinson's disease; test: Animal model for Parkinson's disease; assay type: in vivo; settings: present-tense example without data
# [7] = test system: activated microglia; settings: dose-dependent; cited from earlier work
# [8] = administered systemically; cited from earlier work
# [9] = 30 mg (N = 94), 2 Years, p = 0.0832 vs Placebo to Active
# [10] = 60 mg (N = 98), 2 Years, p = 0.0516 vs Placebo to Active
# [11] = 2 Year Active (pooling of 30 mg and 60 mg dose groups), 2 Years, p = 0.0264 vs Placebo to Active
# [12] = Placebo to Active (to 30 mg/d), 2 Years (12 months placebo, 12 months drug)
# [13] = Placebo to Active (to 60 mg/d), 2 Years (12 months placebo, 12 months drug)
# [14] = Placebo to Active pooled (N = 100), 2 Years
smiles,measurement,setting,value
"CC(C)C(=O)c1c(C(C)C)nn2ccccc12 [ibudilast, 3-isobutyryl-2-isopropylpyrazolo[1,5-a]pyridine]","Disability Progression, number of patients","[1]; 30 mg (N = 94), 1 Year",5
same,"Disability Progression, percent of patients","[1]; 30 mg (N = 94), 1 Year",5.3%
same,"Disability Progression, number of patients",[1]; [9],10
same,"Disability Progression, percent of patients",[1]; [9],(10.6%)
same,"Disability Progression, number of patients","[1]; 60 mg (N = 98), 1 Year",4
same,"Disability Progression, percent of patients","[1]; 60 mg (N = 98), 1 Year",4.1%
same,"Disability Progression, number of patients",[1]; [10],10
same,"Disability Progression, percent of patients",[1]; [10],10.2%
same,Disability progression (worsened ≥1.0 on EDSS for 4 mo) (ITT),"[1]; 60 mg/day, year 1 (Table 1), p=0.334 vs pbo","pbo - 8%, 60 mg - 4%"
same,Annualized relapse rate,"[1]; 60 mg/day, year 1, ITT, p=0.1106 vs pbo","pbo - 0.9, 60 mg - 0.7 (ITT)"
same,IDSS (AUC of change from baseline EDSS),"[1]; 60 mg/day, year 1, ITT, p=0.1761 vs pbo","pbo: −0.05, 60 mg: −0.16 (ITT)"
same,IDSS (AUC of change from baseline EDSS),"[1]; 60 mg/day, year 1, completers, p=0.0365 vs pbo","pbo: −0.05, 60 mg: −0.24 (completers)"
same,Annualized relapse rate,"[1]; 60 mg/day, year 1, completers, p=0.0752 vs pbo","pbo - 0.8, 60 mg - 0.6 (completers)"
same,"Time to first relapse (ITT), median","[1]; 60 mg/day, year 1, p=0.0438 vs pbo (pbo 244 days)",Median for 60 mg >1 year
same,EDSS (% worsened) (ITT),"[1]; 60 mg/day, year 1, p=0.1771 vs pbo","pbo - 30%, 60 mg - 21.4%"
same,% of subjects exacerbation-free for 1 year (ITT),"[1]; 60 mg/day, p=0.033 vs pbo","pbo - 41%, 60 mg - 56.1%"
same,"Disability Progression, number of patients",[1]; [11],20/194
same,"Disability Progression, percent of patients",[1]; [11],10.4%
same,Likelihood of disability progression (≥1.0 point increase in EDSS for 4 consecutive months),"[1]; 24 months of drug vs 12 months of drug, p=0.026",less likely
same,"Disability Progression, number of patients",[1]; [12],8/51
same,"Disability Progression, percent of patients",[1]; [12],(15.7%)
same,"Disability Progression, number of patients",[1]; [13],13/49
same,"Disability Progression, percent of patients",[1]; [13],(26.5%)
same,"Disability Progression, number of patients",[1]; [14],21/100
same,"Disability Progression, percent of patients",[1]; [14],21%
same,Decrease in the rate of sustained disability progression,"[1]; extended (at least about two years) administration, compared with patients treated for less than two years",about 50%
same,"Prolongation of time to relapse, average","[1]; extended (at least about two years) administration, compared with untreated patients",about 130 days
same,Average loss of brain volume,"[2]; 60 mg a day, 1-year treatment period, placebo 1.2%, p 0.0352",0.79%
same,Brain volume loss compared to the other treatment groups (cranial MRI),"[2]; 60 mg per day for 24 months, p=0.030",significantly less
same,Brain volume loss compared to placebo (cranial MRI),"[2]; 60 mg per day, after 12 months, p=0.04",significant reduction
same,Brain volume loss,[2]; extended (at least about two years) administration,reduction
same,# Patients w. New Lesions at Month 2,[3]; 30 mg/day (n=94),64
same,Mean Proportion of Lesions Evolving to PBH,[3]; 30 mg/day,0.20
same,Median Proportion of Lesions Evolving to PBH,[3]; 30 mg/day,0.08
same,Relative Risk (for Evolution to PBH) vs. placebo,"[3]; 30 mg/day, p=0.074, listed as MN-166",0.735 and 0.74
same,# Patients w. New Lesions at Month 2,[3]; 60 mg/day (n=98),56
same,Mean Proportion of Lesions Evolving to PBH,[3]; 60 mg/day,0.16
same,Median Proportion of Lesions Evolving to PBH,[3]; 60 mg/day,0.04
same,Relative Risk (for Evolution to PBH) vs. placebo,"[3]; 60 mg/day, p=0.011",0.63
same,Formation of black holes on MRI,"[3]; first year of treatment, MS patients",decreased
same,Conversion of acute lesions to persistent black holes,[3]; overall benefit statement for extended administration,reduction
same,Cognitive function,[4],improvement
same,Functional outcomes,[5],improvement
same,Locomotion,[6],improvement
same,"Production of IL-10, NGF, GDNF and NT-4",[7],enhance
same,"Production of nitric oxide (NO), reactive oxygen species, IL-1beta, IL-6 and TNF",[7],suppress
same,Blood-brain barrier crossing,[8],crosses the blood-brain barrier
